Measured values from the supplement of paper PMC10627819.

What was measured:
[1] = test system: B. subtilis 168; assay: fitness (endpoint OD595 vs no drug) (fraction); higher = more growth
How it was run: (§1)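 Bacterial growth was followed in 384-well plates seeded at OD595 0.01, with 30 µl per well, or 55 µl for S. pneumoniae, in TSB, LB Lennox or CY at 37 °C. OD595 was read every 30 min for 14 h, and each reading had the first reading subtracted as background. Fitness is the background-corrected optical density at entry into stationary phase divided by the robust mean of the no-drug control wells. This ratio is capped at 1.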

[2] = test system: S. aureus DSM 20231; assay: as above
How it was run: as §1

[3] = test system: S. pneumoniae D39V; assay: as above
How it was run: as §1

[4] = test system: B. subtilis 168; assay: Bliss interaction score (quartile over a dose matrix) (fitness difference); higher = more antagonism (negative = synergy)
How it was run: (§2)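 Fitness was OD595 at entry into stationary phase divided by the plate's robust no-drug mean and capped at 1; single-drug fitness was inferred from combination data. The Bliss score is observed minus expected (product) fitness, summarised by quartiles over technical, biological and donor/recipient replicates.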

[5] = test system: S. aureus DSM 20231; assay: as above
How it was run: as §2

[6] = test system: S. aureus Newman; assay: as above
How it was run: as §2

[7] = test system: S. pneumoniae D39V; assay: as above
How it was run: as §2
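For Bliss interaction score (quartile over a dose matrix) in this document: first quartile when negative (synergy) and third quartile when positive (antagonism).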

CCC[C@@H]1C[C@@H](C(=O)N[C@@H]([C@H]2O[C@H](SC)[C@H](O)[C@@H](O)[C@H]2O)[C@H](C)Cl)N(C)C1 [Clindamycin] + CC(=O)NC[C@H]1CN(c2ccc(N3CCOCC3)c(F)c2)C(=O)O1 [Linezolid]
one replicate
Settings	fitness
[1], first compound 0.0039 µg/mL, partner 0.125 µg/mL	0.943
[1], first compound 0.0039 µg/mL, partner 0.25 µg/mL	0.772
[1], first compound 0.0039 µg/mL, partner 0.5 µg/mL	0.448
[1], first compound 0.0078 µg/mL, partner 0.125 µg/mL	0.853
[1], first compound 0.0078 µg/mL, partner 0.25 µg/mL	0.632
[1], first compound 0.0078 µg/mL, partner 0.5 µg/mL	0.118
[1], first compound 0.0156 µg/mL, partner 0.125 µg/mL	0.835
[1], first compound 0.0156 µg/mL, partner 0.25 µg/mL	0.624
[1], first compound 0.0156 µg/mL, partner 0.5 µg/mL	0.385
[1], first compound 0.0625 µg/mL, partner 0.0625 µg/mL	0.696
[1], first compound 0.125 µg/mL, partner 0.0625 µg/mL	0.497
[1], first compound 0.25 µg/mL, partner 0.0625 µg/mL	0.387
[2], first compound 0.0312 µg/mL, partner 1 µg/mL	0.0507
[2], first compound 0.0625 µg/mL, partner 1 µg/mL	0.0324
[2], first compound 0.125 µg/mL, partner 1 µg/mL	0.0362

Settings	fitness
[1], first compound 0.0625 µg/mL, partner 0.125 µg/mL	0.605
[1], first compound 0.0625 µg/mL, partner 0.25 µg/mL	0.0905
[1], first compound 0.0625 µg/mL, partner 0.5 µg/mL	0.0427
[1], first compound 0.125 µg/mL, partner 0.125 µg/mL	0.502
[1], first compound 0.125 µg/mL, partner 0.25 µg/mL	0.0971
[1], first compound 0.125 µg/mL, partner 0.5 µg/mL	0.0448
[1], first compound 0.25 µg/mL, partner 0.125 µg/mL	0.397
[1], first compound 0.25 µg/mL, partner 0.25 µg/mL	0.104
[1], first compound 0.25 µg/mL, partner 0.5 µg/mL	0.0468
[2], first compound 0.0312 µg/mL, partner 0.5 µg/mL	0.143
[2], first compound 0.0625 µg/mL, partner 0.25 µg/mL	0.13
[2], first compound 0.0625 µg/mL, partner 0.5 µg/mL	0.0789
[2], first compound 0.125 µg/mL, partner 0.125 µg/mL	0.0394
[2], first compound 0.125 µg/mL, partner 0.25 µg/mL	0.0405
[2], first compound 0.125 µg/mL, partner 0.5 µg/mL	0.0486
[3], first compound 0.0125 µg/mL, partner 0.2 µg/mL	0.624
[3], first compound 0.0125 µg/mL, partner 0.4 µg/mL	0.45
[3], first compound 0.0125 µg/mL, partner 0.8 µg/mL	0.264
[3], first compound 0.015 µg/mL, partner 0.105 µg/mL	0.81
[3], first compound 0.015 µg/mL, partner 0.21 µg/mL	0.748
[3], first compound 0.015 µg/mL, partner 0.42 µg/mL	0.627
[3], first compound 0.025 µg/mL, partner 0.2 µg/mL	0.412
[3], first compound 0.025 µg/mL, partner 0.4 µg/mL	0.345
[3], first compound 0.025 µg/mL, partner 0.8 µg/mL	0.237
[3], first compound 0.03 µg/mL, partner 0.105 µg/mL	0.707
[3], first compound 0.03 µg/mL, partner 0.21 µg/mL	0.683
[3], first compound 0.03 µg/mL, partner 0.42 µg/mL	0.539
[3], first compound 0.05 µg/mL, partner 0.2 µg/mL	0.176
[3], first compound 0.05 µg/mL, partner 0.4 µg/mL	0.148
[3], first compound 0.05 µg/mL, partner 0.8 µg/mL	0.112
[3], first compound 0.06 µg/mL, partner 0.105 µg/mL	0.579
[3], first compound 0.06 µg/mL, partner 0.21 µg/mL	0.544
[3], first compound 0.06 µg/mL, partner 0.42 µg/mL	0.277

Settings	Bliss interaction score
[4]	0.215
[5]	0.027
[6]	-0.0929
[7]	0.132

CCC[C@@H]1C[C@@H](C(=O)N[C@@H]([C@H]2O[C@H](SC)[C@H](O)[C@@H](O)[C@H]2O)[C@H](C)Cl)N(C)C1 [Clindamycin] + CCC[C@@H]1C[C@@H](C(=O)N[C@@H]([C@H]2O[C@H](SC)[C@H](O)[C@@H](O)[C@H]2O)[C@@H](C)O)N(C)C1 [Lincomycin]
fitness, [1], one replicate
Settings	first compound 0.0039 µg/mL	first compound 0.0078 µg/mL	first compound 0.0156 µg/mL
partner 0.4 µg/mL	0.964	0.838	0.828
partner 0.8 µg/mL	0.965	0.803	0.83
partner 1.6 µg/mL	0.94	0.817	0.81

Settings	fitness
[1], first compound 0.0625 µg/mL, partner 0.1 µg/mL	0.659
[1], first compound 0.0625 µg/mL, partner 0.2 µg/mL	0.613
[1], first compound 0.0625 µg/mL, partner 0.4 µg/mL	0.675
[1], first compound 0.125 µg/mL, partner 0.1 µg/mL	0.454
[1], first compound 0.125 µg/mL, partner 0.2 µg/mL	0.406
[1], first compound 0.25 µg/mL, partner 0.1 µg/mL	0.363
[1], first compound 0.25 µg/mL, partner 0.2 µg/mL	0.355
[1], first compound 0.25 µg/mL, partner 0.4 µg/mL	0.356
[2], first compound 0.0312 µg/mL, partner 0.2 µg/mL	0.265
[2], first compound 0.0312 µg/mL, partner 0.4 µg/mL	0.137
[2], first compound 0.0625 µg/mL, partner 0.1 µg/mL	0.16
[2], first compound 0.0625 µg/mL, partner 0.2 µg/mL	0.112
[2], first compound 0.0625 µg/mL, partner 0.4 µg/mL	0.083
[2], first compound 0.125 µg/mL, partner 0.1 µg/mL	0.0376
[2], first compound 0.125 µg/mL, partner 0.2 µg/mL	0.0455
[2], first compound 0.125 µg/mL, partner 0.4 µg/mL	0.0541
[3], first compound 0.0125 µg/mL, partner 0.2 µg/mL	0.496
[3], first compound 0.0125 µg/mL, partner 0.4 µg/mL	0.351
[3], first compound 0.0125 µg/mL, partner 0.8 µg/mL	0.0708
[3], first compound 0.015 µg/mL, partner 0.215 µg/mL	0.831
[3], first compound 0.015 µg/mL, partner 0.43 µg/mL	0.741
[3], first compound 0.015 µg/mL, partner 0.86 µg/mL	0.482
[3], first compound 0.025 µg/mL, partner 0.2 µg/mL	0.356
[3], first compound 0.025 µg/mL, partner 0.4 µg/mL	0.243
[3], first compound 0.025 µg/mL, partner 0.8 µg/mL	0.0559
[3], first compound 0.03 µg/mL, partner 0.215 µg/mL	0.772
[3], first compound 0.03 µg/mL, partner 0.43 µg/mL	0.739
[3], first compound 0.03 µg/mL, partner 0.86 µg/mL	0.394
[3], first compound 0.05 µg/mL, partner 0.2 µg/mL	0.0687
[3], first compound 0.05 µg/mL, partner 0.4 µg/mL	0.0516
[3], first compound 0.05 µg/mL, partner 0.8 µg/mL	0.0164
[3], first compound 0.06 µg/mL, partner 0.215 µg/mL	0.632
[3], first compound 0.06 µg/mL, partner 0.43 µg/mL	0.524
[3], first compound 0.06 µg/mL, partner 0.86 µg/mL	0.152

Settings	Bliss interaction score
[4]	0.193
[5]	-0.0523
[6]	-0.22
[7]	0.0748

O=C(O[C@@H]1Cc2c(O)cc(O)cc2O[C@@H]1c1cc(O)c(O)c(O)c1)c1cc(O)c(O)c(O)c1 [EGCG] + CC(=O)NC[C@H]1CN(c2ccc(N3CCOCC3)c(F)c2)C(=O)O1 [Linezolid]
fitness, one replicate
Settings	first compound 6.25 µg/mL	first compound 12.5 µg/mL	first compound 25 µg/mL	first compound 50 µg/mL
[1], partner 0.0625 µg/mL	0.854	0.61	0.286	–
[2], partner 1 µg/mL	–	0.0545	0.076	0.0554

fitness
Settings	first compound 6.25 µg/mL	first compound 12.5 µg/mL	first compound 25 µg/mL	first compound 50 µg/mL
[1], partner 0.125 µg/mL	0.582	0.482	–	–
[1], partner 0.25 µg/mL	–	–	0.0697	–
[1], partner 0.5 µg/mL	0.0716	0.0599	0.0583	–
[2], partner 0.125 µg/mL	–	0.745	0.816	0.708
[2], partner 0.25 µg/mL	–	0.551	0.559	0.563
[2], partner 0.5 µg/mL	–	0.223	0.25	0.159
[3], partner 0.105 µg/mL	–	0.735	0.634	0.752
[3], partner 0.2 µg/mL	–	0.533	0.517	0.411
[3], partner 0.21 µg/mL	–	0.604	0.688	0.64
[3], partner 0.4 µg/mL	–	0.283	0.249	0.218
[3], partner 0.42 µg/mL	–	0.505	–	0.498
[3], partner 0.8 µg/mL	–	0.12	0.0783	0.133

Settings	Bliss interaction score
[4]	0.0875
[5]	0.0748
[6]	0.0955
[7]	-0.1

O=C(O[C@@H]1Cc2c(O)cc(O)cc2O[C@@H]1c1cc(O)c(O)c(O)c1)c1cc(O)c(O)c(O)c1 [EGCG] + CCC[C@@H]1C[C@@H](C(=O)N[C@@H]([C@H]2O[C@H](SC)[C@H](O)[C@@H](O)[C@H]2O)[C@@H](C)O)N(C)C1 [Lincomycin]
fitness
Settings	partner 0.1 µg/mL	partner 0.2 µg/mL	partner 0.215 µg/mL	partner 0.4 µg/mL	partner 0.43 µg/mL	partner 0.8 µg/mL	partner 0.86 µg/mL
[1], first compound 6.25 µg/mL	0.889	0.88	–	0.908	–	–	–
[2], first compound 12.5 µg/mL	0.593	0.505	–	0.354	–	–	–
[2], first compound 25 µg/mL	0.592	0.553	–	0.306	–	–	–
[2], first compound 50 µg/mL	0.549	–	–	0.142	–	–	–
[3], first compound 12.5 µg/mL	–	0.429	0.739	0.273	0.565	0.0193	0.389
[3], first compound 25 µg/mL	–	0.483	0.713	0.439	0.668	0.0594	0.456
[3], first compound 50 µg/mL	–	0.328	0.565	0.182	0.671	–	–

fitness, [1], one replicate
Settings	first compound 6.25 µg/mL	first compound 12.5 µg/mL	first compound 25 µg/mL
partner 0.8 µg/mL	0.908	0.761	0.709
partner 1.6 µg/mL	0.864	0.734	0.606

Settings	Bliss interaction score
[4]	0.102
[5]	-0.119
[6]	-0.056
[7]	-0.112
